The source of these data is patent US10420734B2, “Method of treating cancer using selective estrogen receptor modulators” (Duke University, priority 2014, dated 2019).

One assay relates to MCF7 cells. The assay is described as follows: MCF7 proliferation in response to E2 or insulin. It is filed as cell-based. The conditions noted are these: SERMs and SERDs 10^-6 M, insulin 2×10^-9 M. The protocol: The expression of ESR1 target genes responsive to (FIG. 10A) agonists, (FIG. 10B) primarily SERMs, or (FIG. 10C) SERMs and agonists was analyzed as in FIG. 5. Relative changes of these and additional target genes designed to evaluate dose dependent response to RAD1901 are presented in FIG. 11. Significant target gene regulation (*p<0.05) as compared to the vehicle control was detected by 2 way ANOVA followed by Fisher's LSD (Graphpad Prism 6). […] Triplicate wells of SKBR3 cells were transfected with plasmids expressing ESR1 fused to VP16 together with Gal4DBD alone (control) or Gal4DBD fused to ESR1 interacting peptides noted on the horizontal axis. Cells were then treated with the indicated ESR1 ligands (10^−7 M unless otherwise indicated). Interaction of ESR1 with the Gal4DBD peptide constructs was detected through activation of a Gal4-responsive luciferase reporter construct and was normalized to detected β-galactosidase activity expressed in a constitutive manner using a second vector. Normalized response was expressed as fold increase over the detected level of interaction between Gal4DBD alone and ESR1-VP16 in the absence of ligand (Veh). For FIG. 10E, the effect of SERMs and SERDs (10^−6 M) on the proliferation of MCF7 cells in response to E2 (10^−9 M) or insulin (2×10^−9 M) was evaluated as in FIG. 5. Statistically similar treatments (2-way ANOVA followed by Bonferroni comparison) are indicated by letters. […] The expression of ESR1 target genes responsive to (A) agonists, (B) primarily SERMs, or (C) SERMs and agonists was analyzed using RT qPCR following RNA isolation. mRNA expression was normalized (ΔΔCT analysis) to the similarly detected 36B4 housekeeping. The profiles presented in dendogram format were analyzed with the Ward hierarchical clustering algorithm (JMP 11) using standardized data.

For the next assay, the target named is T1, ESR1 (Homo sapiens, UniProt P03372).
T1 sequence (P03372 1-595): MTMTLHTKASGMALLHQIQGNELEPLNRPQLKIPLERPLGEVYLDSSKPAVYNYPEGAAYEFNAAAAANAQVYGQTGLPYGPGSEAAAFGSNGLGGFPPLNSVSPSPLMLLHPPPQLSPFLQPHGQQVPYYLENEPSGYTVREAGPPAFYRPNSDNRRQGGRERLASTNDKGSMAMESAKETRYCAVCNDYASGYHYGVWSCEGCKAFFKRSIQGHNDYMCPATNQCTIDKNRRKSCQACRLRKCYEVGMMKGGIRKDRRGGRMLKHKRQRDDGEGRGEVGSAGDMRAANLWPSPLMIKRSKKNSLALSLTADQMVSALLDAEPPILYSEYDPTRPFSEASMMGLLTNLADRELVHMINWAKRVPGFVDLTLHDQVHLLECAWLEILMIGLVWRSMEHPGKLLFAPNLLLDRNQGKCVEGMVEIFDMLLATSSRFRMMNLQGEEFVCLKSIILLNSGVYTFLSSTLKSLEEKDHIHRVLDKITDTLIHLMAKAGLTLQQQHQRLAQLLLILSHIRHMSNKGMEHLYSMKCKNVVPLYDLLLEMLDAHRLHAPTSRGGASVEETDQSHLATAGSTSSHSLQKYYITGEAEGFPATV
The assay is described as follows: ESR1 expression in LTED MCF7 cells (immunoblot). As to conditions: 24 hours, SERDs 10^-6 M. The assay is classed as cell-based. How it is done: MCF7 and SKBR3 cell lines were maintained in DMEM/F12 or RPMI media (Invitrogen), respectively, supplemented with 8% fetal bovine serum (FBS, Gemini), non-essential amino acids (Invitrogen), and sodium pyruvate (Invitrogen). Unless otherwise indicated, cells were plated for experiments in media lacking phenol red and supplemented with 8% charcoal stripped FBS (CFS, Gemini). LTED MCF7 cells were maintained and plated for experiments in phenol red free DMEM/F12 media supplemented with 8% CFS that had been charcoal stripped twice. 48 hours after plating, cells were treated with ESR1 ligands as indicated, and were harvested for immunoblot or real time quantitative PCR analysis 24 hours after treatment.
Expression of ESR1 and loading control cytokeratin 18 (CK18—FIG. 7A) in whole cell extracts were detected by immunoblot (top). ESR1 levels relative to CK18 were quantitated by densitometry using Adobe Photoshop (bottom). […] ESR1 expression was detected as in FIG. 6A. For FIGS. 6C-6D, LTED MCF7 cells were plated in phenol red free media supplemented with FBS that was stripped of growth factors twice using charcoal. For FIG. 6C, after 48 hours, cells were treated for 24 hours with E2 (10^−7 M) or SERDs (10^−6 M) and ESR1 was analyzed as in FIG. 6A.
On the technique in general: A western blot detects proteins with antibodies after separation by electrophoresis.

A further assay concerns LTED MCF7 cells. The assay is described as follows: LTED MCF7 cell proliferation assay. It is filed as cell-based. As to conditions: model of aromatase resistance, 10^-11-10^-6 M, 8 day assay.
The test system of a further assay is MCF7 xenograft tumors. The assay is described as follows: MCF7 xenograft tumor study in estrogen-treated ovariectomized nu/nu mice. The conditions noted are these: 20 mg/kg sc daily. It is filed as in vivo. The protocol: A total of 90 female Nu/Nu mice were ovariectomized and implanted subcutaneous simultaneously with an estrogen pellet (Innovative Research of America) releasing 0.72 mg estradiol (E2) over 60 days. 2 days later an approximately 6 mm^3 fragment of an MCF7 xenograft tumor (isolated from a recently sacrificed estrogen treated nu/nu mouse) was inserted subcutaneous into the axial mammary gland. Tumor growth (by caliper measurement) and animal body weight were monitored 3× weekly until tumor volume reached ˜0.2 cm^3. […] Treatments were formulated in sterile corn oil and were administered daily by subcutaneous injection. After 3 weeks of treatments, animals were euthanized and serum and tissues saved for analysis. FIG. 1B depicts tumor volume analyzed using non-linear curve fit and exponential growth calculation (Graphpad Prism), followed by two-way ANOVA and Bonferroni analysis.
Xenograft tumor analysis: Estrogen-stimulated MCF7 tumors were initiated in the axial mammary gland of 6-week old estrogen-treated (0.72 mg/60 days pellet sc, Innovative Research of America) ovariectomized female NU/NU mice (in-house colony) by serial transfer and were measured as described (Wardell et al., (2013) Clin Cancer Res 19 (9):2420-2431). […] Animal tissues were processed and analyzed as described (Wardell et al., (2013) Clin Cancer Res 19 (9):2420-2431).
The ability of RAD1901 (FIG. 5A) to modulate the […] estradiol (E2) dependent transcriptional activity of the human estrogen receptor alpha (ESR1) and human estrogen receptor beta (ESR2) was assessed in transiently transfected SKBR3 cells using a synthetic reporter gene. […] DNA content as assessed by fluorescence was measured as a surrogate for cell proliferation. The relative increase in DNA fluorescence was calculated by normalizing to baseline values detected in a duplicate plate of cells that was harvested on day 1 prior to the initial treatment. […] For FIG. 5F, expression of ESR1 target genes in tumors was analyzed essentially as in (C).

As to `O=C(c1ccc(OCCN2CCCCC2)cc1)c1c(-c2ccc(O)cc2)sc2cc(O)ccc12` [Ralox, raloxifene], the insulin-stimulated proliferation result in the assay on MCF7 cells is reported as “without effect”.

For `C[C@]12CC[C@@H]3c4ccc(O)cc4C[C@@H](CCCCCCCCC[S+]([O-])CCCC(F)(F)C(F)(F)F)[C@H]3[C@@H]1CC[C@@H]2O` (stereo partly shown) [ICI, ICI 182,780], the ESR1 expression levels entry at ESR1 was “downregulated ESR1 expression”. The insulin-stimulated proliferation result in the assay with MCF7 cells is given as “efficiently inhibited”. Also, the cell proliferation result with LTED MCF7 cells is recorded as “inhibited cell proliferation”.

Take `CC/C(=C(\c1ccccc1)c1ccc(OCCN(C)C)cc1)c1ccccc1` [tamoxifen, reference compound]: in the assay on LTED MCF7 cells, the cell proliferation entry is “minimally effective”. Also, the “expression of ESR1-target genes PGR and FHL1 in treated tumors” value in the assay on MCF7 xenograft tumors is “suppress the expression of the ESR1-target genes PGR and FHL1 to the same degree”.

For the compound 4-hydroxytamoxifen [4OHT], in the assay with MCF7 cells, the insulin-stimulated proliferation entry was “without effect”.
